The structures appear in SMILES notation.

The record followed here is ChEMBL document CHEMBL4483862, “Open-source discovery of chemical leads for next-generation chemoprotective antimalarials” (2018).

This experiment concerns Plasmodium berghei. The experiment can be described thus: Luciferase/luciferin-expressing antifolate-resistant parasites were used to infect a culture of HepG2 cells that were pre-incubated with compounds. Infected hepatocytes emit light due to the luciferase reaction. Assay results are presented as the percent inhibition of light emission compared to control. […]. In kind it is functional. To be noted: sporozoite; for IC90: read-out: LUCIFERASE INFECTION ASSAY - IC90.

As for `Cc1nn(-c2ccc(F)cc2)c(Cl)c1/C=C1\C(=O)Nc2ccccc21`, the IC90 turned out to be 4.68 µM. Moreover, the IC50 (HEPG2TOX_HILL_SLOPE 2.09, HEPG2TOX_R_SQUARED 0.992, PBLUC_HILL_SLOPE 1.31, PBLUC_R_SQUARED 0.551, read-out: LUCIFERASE INFECTION ASSAY - IC50) stood at 0.878 µM.
Regarding `COc1cc(-c2ccc3ncc(-c4cccc(CO)c4)n3n2)cc(OC)c1OC`, the IC90 stood at 2.51 µM. Besides, the IC50 (HEPG2TOX_HILL_SLOPE 2.11, HEPG2TOX_R_SQUARED 0.989, PBLUC_HILL_SLOPE 5.29, PBLUC_R_SQUARED 0.606, read-out: LUCIFERASE INFECTION ASSAY - IC50) was determined as 1.66 µM.
Turning to `CCOC(=O)c1sc(NC(=O)Nc2ccc([N+](=O)[O-])cc2)cc1C`, the IC90 was 4.91 µM. Further, for the setting “HEPG2TOX_HILL_SLOPE 2.1, HEPG2TOX_R_SQUARED 0.922, PBLUC_HILL_SLOPE 2.24, PBLUC_R_SQUARED 0.786, read-out: LUCIFERASE INFECTION ASSAY - IC50”, the IC50 is 1.84 µM.
Take `N#C/C(=N\Nc1cccc(C(F)(F)F)c1)S(=O)(=O)c1ccsc1`: the 90% effect concentration (IC90) was greater than 9.18 µM. The IC50 (HEPG2TOX_HILL_SLOPE 2.11, HEPG2TOX_R_SQUARED 0.943, PBLUC_HILL_SLOPE 4.11, PBLUC_R_SQUARED 0.604, read-out: LUCIFERASE INFECTION ASSAY - IC50) came to 6.42 µM.
For the compound `O=c1c(Cl)c(Cl)cnn1-c1nc2ccccc2[nH]1`, the concentration for an effect of 90% (IC90) worked out at 1.65 µM. For the setting “HEPG2TOX_HILL_SLOPE 2.11, HEPG2TOX_R_SQUARED 0.958, PBLUC_HILL_SLOPE 7.93, PBLUC_R_SQUARED 0.809, read-out: LUCIFERASE INFECTION ASSAY - IC50”, the IC50 was found to be 1.25 µM.
For the compound `CCN1C(=O)N(Cc2cccc(OC)c2)C(=O)C12CCN(Cc1cnc(-c3ccccc3)s1)CC2`, the IC90 is greater than 6.73 µM. Moreover, the IC50 (HEPG2TOX_HILL_SLOPE 2.07, HEPG2TOX_R_SQUARED 0.932, PBLUC_HILL_SLOPE 9.26, PBLUC_R_SQUARED 0.304, read-out: LUCIFERASE INFECTION ASSAY - IC50) came to 5.74 µM.
`CC(C)NC(=O)c1c(NC(=O)c2ccc(Cl)cc2)nc2ccccn12`: the IC90 amounted to 1.07 µM. In addition, the IC50 (HEPG2TOX_HILL_SLOPE 2.11, HEPG2TOX_R_SQUARED 0.869, PBLUC_HILL_SLOPE 50.8, PBLUC_R_SQUARED 0.665, read-out: LUCIFERASE INFECTION ASSAY - IC50) was found to be 1.02 µM.
For `FC(F)(F)Oc1ccc(-c2ccc(OCCCc3ccccn3)nc2)cc1`, the IC90 was greater than 8.82 µM. In addition, the half-inhibitory concentration (IC50) (HEPG2TOX_HILL_SLOPE 2.06, HEPG2TOX_R_SQUARED 0.963, PBLUC_HILL_SLOPE 4.51, PBLUC_R_SQUARED 0.157, read-out: LUCIFERASE INFECTION ASSAY - IC50) was determined as 6.75 µM.
For the compound `CCOc1ccccc1/C=C/C(=O)OCC(=O)Nc1ccccc1-c1ccccc1`, the IC90 amounted to 3.67 µM. Besides, the IC50 (HEPG2TOX_HILL_SLOPE 2.07, HEPG2TOX_R_SQUARED 0.949, PBLUC_HILL_SLOPE 25.6, PBLUC_R_SQUARED 0.535, read-out: LUCIFERASE INFECTION ASSAY - IC50) turned out to be 3.37 µM.
In the case of `CNS(=O)(=O)c1ccc(C(=O)Nc2ccc(Nc3ccccc3)cc2)o1`, the IC90 came to 1.18 µM. For the same compound, the IC50 (HEPG2TOX_HILL_SLOPE 2.07, HEPG2TOX_R_SQUARED 0.347, PBLUC_HILL_SLOPE 43.9, PBLUC_R_SQUARED 0.459, read-out: LUCIFERASE INFECTION ASSAY - IC50) was found to be 1.12 µM.
In the case of `CC(Sc1nnc(-c2ccccc2)c(-c2ccccc2)n1)C(=O)N1CCCC1` (stereo not drawn), the IC90 is 1.49 µM. Moreover, the IC50 (HEPG2TOX_HILL_SLOPE 2.07, HEPG2TOX_R_SQUARED 0.202, PBLUC_HILL_SLOPE 16.4, PBLUC_R_SQUARED 0.575, read-out: LUCIFERASE INFECTION ASSAY - IC50) came out at 1.3 µM.
On to `O=C1CC(c2ccccc2Br)c2c(ccc3ccccc23)N1` (stereo not drawn), for which the IC90 is greater than 9.37 µM. For the same compound, the IC50 (HEPG2TOX_HILL_SLOPE 2.07, HEPG2TOX_R_SQUARED 0.801, PBLUC_HILL_SLOPE 1.69, PBLUC_R_SQUARED 0.513, read-out: LUCIFERASE INFECTION ASSAY - IC50) was found to be 4.97 µM.
Regarding `CC1CCC(C(C)C)C(OC(=O)C[n+]2cn(C)c3ccccc32)C1` (stereo not drawn), the IC90 came out at 3.79 µM. Also, under “HEPG2TOX_HILL_SLOPE 2.1, HEPG2TOX_R_SQUARED 0.908, PBLUC_HILL_SLOPE 16.2, PBLUC_R_SQUARED 0.404, read-out: LUCIFERASE INFECTION ASSAY - IC50”, the IC50 came out at 3.31 µM.
Take `Cc1cc(SCCN)c2cc(F)ccc2n1`: the IC90 is greater than 14 µM. The IC50 (HEPG2TOX_HILL_SLOPE 2.08, HEPG2TOX_R_SQUARED 0.947, PBLUC_HILL_SLOPE 2.61, PBLUC_R_SQUARED 0.644, read-out: LUCIFERASE INFECTION ASSAY - IC50) is 6.26 µM.
As for `Cc1cc(C(=O)OCC(=O)Nc2cccc(C#N)c2)c(C)n1-c1ccccc1`, the IC90 is greater than 10 µM. For the setting “HEPG2TOX_HILL_SLOPE 2.12, HEPG2TOX_R_SQUARED 0.531, read-out: LUCIFERASE INFECTION ASSAY - IC50”, the IC50 is greater than 10 µM.
Regarding `CCOC(=O)c1sc(N)c(C#N)c1CSc1nnc(-c2ccc(OC)c(OC)c2)o1`, the IC90 amounted to 9.92 µM. For the same compound, the IC50 (HEPG2TOX_HILL_SLOPE 2.07, 4.99, HEPG2TOX_R_SQUARED 0.833, 0.121, PBLUC_HILL_SLOPE 3.67, 1.56, PBLUC_R_SQUARED 0.0908, 0.540, read-out: LUCIFERASE INFECTION ASSAY - IC50) was found to be 4.06 µM.
Consider `CCc1cccc2c(C3=NNC(=Nc4cccc(S(=O)(=O)N(C)C)c4)SC3)c[nH]c12`, for which the IC90 came out at 3.4 µM. Further, the IC50 (HEPG2TOX_HILL_SLOPE 2.11, HEPG2TOX_R_SQUARED 0.991, PBLUC_HILL_SLOPE 17, PBLUC_R_SQUARED 0.266, read-out: LUCIFERASE INFECTION ASSAY - IC50) amounted to 2.99 µM.
On to `O=C(NC1CC1)c1ccc(-c2cnc3cnc(-c4ccccc4Cl)cn23)cc1`, for which the IC90 is greater than 8.49 µM. Further, the IC50 (HEPG2TOX_HILL_SLOPE 2.06, HEPG2TOX_R_SQUARED 0.921, PBLUC_HILL_SLOPE 2.15, PBLUC_R_SQUARED 0.563, read-out: LUCIFERASE INFECTION ASSAY - IC50) amounted to 4.01 µM.
Take `C=CS(=O)(=O)Oc1cc(C)cc(C)c1`: the IC90 is greater than 10 µM. Moreover, the concentration for half-maximal inhibition (IC50) (HEPG2TOX_HILL_SLOPE 2.11, HEPG2TOX_R_SQUARED 0.803, read-out: LUCIFERASE INFECTION ASSAY - IC50) was greater than 10 µM.
As for `Cc1ccc2c(c1)C(c1ccccc1C(F)(F)F)CC(=O)N2` (stereo not drawn), the IC90 is greater than 10.8 µM. Moreover, the IC50 (HEPG2TOX_HILL_SLOPE 2.11, HEPG2TOX_R_SQUARED 0.713, PBLUC_HILL_SLOPE 2.64, PBLUC_R_SQUARED 0.143, read-out: LUCIFERASE INFECTION ASSAY - IC50) came out at 5.8 µM.
With `CCc1ccc(Cl)c(CC)c1NC(=O)CCc1c(C)c2ccc(C)cc2oc1=O`, the IC90 is greater than 10 µM. Also, the IC50 (HEPG2TOX_HILL_SLOPE 2.1, HEPG2TOX_R_SQUARED 0.669, read-out: LUCIFERASE INFECTION ASSAY - IC50) is greater than 10 µM.
Take `CCCn1c(NC(=O)c2ccc(CS(=O)(=O)c3ccccc3)o2)nc2ccccc21`: the IC90 amounted to 4.08 µM. The IC50 (HEPG2TOX_HILL_SLOPE 2.08, HEPG2TOX_R_SQUARED 0.973, PBLUC_HILL_SLOPE 1.97, PBLUC_R_SQUARED 0.429, read-out: LUCIFERASE INFECTION ASSAY - IC50) amounted to 1.34 µM.
In the case of `COc1ccc(-c2ccc3ncc(-c4ccc5c(c4)OCO5)n3n2)cc1OC`, the IC90 came out at 1.1 µM. Further, the IC50 (HEPG2TOX_HILL_SLOPE 2.06, HEPG2TOX_R_SQUARED 0.96, PBLUC_HILL_SLOPE 2.96, PBLUC_R_SQUARED 0.768, read-out: LUCIFERASE INFECTION ASSAY - IC50) turned out to be 0.524 µM.
For `O=C(Nc1ccc(OC(F)(F)F)cc1)Nc1nnc(C(F)(F)F)s1`, the IC90 came to 0.377 µM. Moreover, the IC50 (HEPG2TOX_HILL_SLOPE 2.11, HEPG2TOX_R_SQUARED 0.979, PBLUC_HILL_SLOPE 11.8, PBLUC_R_SQUARED 0.539, read-out: LUCIFERASE INFECTION ASSAY - IC50) was determined as 0.313 µM.
On to `O=C(Nc1ccc2nc(Cc3ccccc3)nn2c1)c1cccc(Cl)c1`, for which the IC90 was found to be 1.48 µM. In addition, the IC50 (HEPG2TOX_HILL_SLOPE 2.06, HEPG2TOX_R_SQUARED 0.967, PBLUC_HILL_SLOPE 11.3, PBLUC_R_SQUARED 0.609, read-out: LUCIFERASE INFECTION ASSAY - IC50) worked out at 1.22 µM.
For the compound `CCOC(=O)c1ccc(N2CCN(C(C)c3nc(C(C)C)no3)CC2)nc1` (stereo not drawn), the IC90 was greater than 10 µM. The IC50 (HEPG2TOX_HILL_SLOPE 2.09, HEPG2TOX_R_SQUARED 0.987, PBLUC_HILL_SLOPE 1.97, PBLUC_R_SQUARED 0.365, read-out: LUCIFERASE INFECTION ASSAY - IC50) stood at 4.25 µM.
As for `Cc1nn(-c2ccccn2)c2nc(-c3ccc4c(c3)OCO4)ccc12`, the IC90 was greater than 10 µM. For the setting “HEPG2TOX_HILL_SLOPE 2.11, HEPG2TOX_R_SQUARED 0.932, read-out: LUCIFERASE INFECTION ASSAY - IC50”, the IC50 is greater than 10 µM.
Turning to `CNc1nc2cnc(Nc3cccc(NC(C)=O)c3)cc2n1-c1cccc(F)c1`, the IC90 is greater than 10 µM. Also, the IC50 (HEPG2TOX_HILL_SLOPE 2.07, HEPG2TOX_R_SQUARED 0.855, PBLUC_HILL_SLOPE 1.72, PBLUC_R_SQUARED 0.4, read-out: LUCIFERASE INFECTION ASSAY - IC50) is 3.92 µM.
Turning to `c1ccc(-c2ccnc3c2ccc2c(-c4ccccc4)ccnc23)cc1`, the IC90 turned out to be 1.74 µM. The IC50 (HEPG2TOX_HILL_SLOPE 2.07, HEPG2TOX_R_SQUARED 0.947, PBLUC_HILL_SLOPE 9.72, PBLUC_R_SQUARED 0.861, read-out: LUCIFERASE INFECTION ASSAY - IC50) amounted to 1.39 µM.
